The values below come from US8669249B2, “Poly (ADP-ribose) polymerase (PARP) inhibitors” (Takeda Pharmaceutical Company Limited, priority 2009, dated 2014).

The assay concerns the target T1, catalytic domain of Human PARP (Homo sapiens, UniProt P09874).
T1 construct: The catalytic domain of Human PARP was cloned and prepared; made in house
The assay can be described thus: Biacore surface plasmon resonance affinity assay. The class given is binding. The note with it: pKD=-log10 KD, KD in mol/L; Biacore T100, 25° C.; read-out: pKD (converted). The procedure: Dissociation Constant (KD) from Surface Plasmon Resonance
The catalytic domain of Human PARP was cloned and prepared as described in Kinoshita, et al. FEBS Letters (2006), 556:43-46. Purified enzyme was stored at −80° C. in 25 mM Tris(hydroxymethyl)aminomethane (‘Tris’) pH 7.4, 150 mM NaCl, 2 mM dithiothreitol (DTT) at a concentration of 6 mg/mL.
Biacore affinity assays for test compounds were conducted on a Biacore T100 (GE Healthcare) as follows. A Series S Sensor Chip CM5 (part number BR-1006-68, GE Healthcare) was activated for amide coupling with an Amine Coupling Kit (part number BR-1000-50, GE Healthcare) as described by the manufacturer. The mobile phase buffer consisted of Biacore buffer HBS-P (part number BR-1003-68, GE Healthcare) supplemented with 1% v/v dimethylsulfoxide (DMSO), 0.5 mM Tris(2-carboxyethyl)phosphine hydrochloride (TCEP), and 5 mM MgCl2. Enzyme samples (2 μL/6 mg/mL) stored at −80° C. were diluted to 0.080 mg/mL with 10 mM 4-morpholineethanesulfonic acid (MES) pH 6.5 and then mounted on the activated Biacore CM5 chip at a flow rate of 10 μL/min for 240 seconds. […] Test compounds were diluted 9 times 2-fold serially in mobile phase buffer (listed above) at 1% v/v DMSO final to generate a concentration gradient bracketing their anticipated KDs. Biacore mounted PARP was given a 1 minute exposure (association phase) to various concentrations of test compounds to observe a steady state equilibrium or an on-rate. The exposure was followed with a dissociation phase of 5 minutes. The association and dissociation phases were at a flow rate of 50 μL/min and a temperature of 25° C.
Parameters Rmax (response at saturation) and KD (binding constant) were calculated through a nonlinear least squares fitting of the equation to the data by use of the Biacore T100 analysis software.
Parameter optimization was through a nonlinear least squares analysis of the association phase Response=Rmax*(1−exp(−(kon[cmpd]+koff)*t)) and dissociation phase Response=[…] by use of the Biacore T100 analysis software. The binding constant KD was calculated from the definition KD=koff/kon
A general note: Surface plasmon resonance follows binding to a sensor surface in real time, without labels.

T1 sequence (P09874 788-1014 limits assumed): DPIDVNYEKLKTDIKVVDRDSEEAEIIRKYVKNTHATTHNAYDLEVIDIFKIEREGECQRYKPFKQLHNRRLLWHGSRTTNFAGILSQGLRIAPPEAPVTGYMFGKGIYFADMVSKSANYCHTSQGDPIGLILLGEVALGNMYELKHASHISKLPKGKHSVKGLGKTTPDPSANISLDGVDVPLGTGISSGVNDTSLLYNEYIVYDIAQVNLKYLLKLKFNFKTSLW

On to `CC1Oc2ccc(CN3CCN(Cc4ccccc4)C(=O)C3)cc2NC1=O` (stereo not shown) [Compound 41, 6-((4-Benzyl-3-oxopiperazin-1-yl)methyl)-2-methyl-2H-benzo[b][1,4]oxazin-3(4H)-one], for which the Kd was above 1 µM.

In the case of `CC1Oc2ccc(CN3CCC(c4ccccc4)CC3)cc2NC1=O` (stereo not shown) [Compound 31, 2-Methyl-6-((4-phenylpiperidin-1-yl)methyl)-2H-benzo[b][1,4]oxazin-3(4H)-one], the Kd is 0.0126 to 0.1 µM.

`CC(=O)Nc1ccc(-c2ccc3c(c2)NC(=O)C(C)O3)cc1` (stereo not shown) [Compound 155, N-(4-(2-Methyl-3-oxo-3,4-dihydro-2H-benzo[b][1,4]oxazin-6-yl)phenyl)acetamide]: the Kd was above 10 µM.

As to `O=C1COc2ccc(S(=O)(=O)N3CCCCC3)cc2N1` [Compound 115, 6-(piperidin-1-ylsulfonyl)-2H-benzo[b][1,4]oxazin-3(4H)-one], the Kd is at least 100 µM.

On to `CC1Oc2ccc(CN3CCN(CC(=O)NC4CC4)CC3)cc2NC1=O` (stereo not shown) [Compound 176, N-Cyclopropyl-2-(4-((2-methyl-3-oxo-3,4-dihydro-2H-benzo[b][1,4]oxazin-6-yl)methyl)piperazin-1-yl)acetamide], for which the Kd was above 10 µM.

`O=C1COc2ccc(C(=O)NCc3ccccc3)cc2N1` [Compound 107, N-Benzyl-3-oxo-3,4-dihydro-2H-benzo[b][1,4]oxazine-6-carboxamide]: the Kd was at least 100 µM.

In the case of `COC(=O)c1cccc(C2CCN(Cc3ccc4c(c3)NC(=O)C(C)O4)CC2)c1` (stereo not shown) [Compound 212, Methyl 3-(1-((2-methyl-3-oxo-3,4-dihydro-2H-benzo[b][1,4]oxazin-6-yl)methyl)piperidin-4-yl)benzoate], the Kd is at least 100 µM.

Regarding `O=C1COc2ccc(CCN3CCN(c4ccncc4)CC3)cc2N1` [Compound 128, 6-(2-(4-(Pyridin-4-yl)piperazin-1-yl)ethyl)-2H-benzo[b][1,4]oxazin-3(4H)-one], the Kd is 12.6 to 79.4 µM.

Turning to `O=C1COc2ccc(C(=O)NCC3CCCCC3)cc2N1` [Compound 108, N-(Cyclohexylmethyl)-3-oxo-3,4-dihydro-2H-benzo[b][1,4]oxazine-6-carboxamide], the Kd was at least 100 µM.

Take `CC1Oc2cc(CN3CCC(c4nc5ccccc5[nH]4)CC3)ccc2NC1=O` (stereo not shown) [Compound 203, 7-((4-(1H-Benzo[d]imidazol-2-yl)piperidin-1-yl)methyl)-2-methyl-2H-benzo[b][1,4]oxazin-3(4H)-one]: the Kd is at least 100 µM.

`CC1Oc2ccc(CNCc3ccccc3)cc2NC1=O` (stereo not shown) [Compound 32, 6-((Benzylamino)methyl)-2-methyl-2H-benzo[b][1,4]oxazin-3(4H)-one]: the Kd was 1.26 to 10 µM.

Turning to `CC1Oc2ccc(CN3CCN(c4cccc(C(F)(F)F)c4)CC3)cc2NC1=O` (stereo not shown) [Compound 221, 2-Methyl-6-((4-(3-(trifluoromethyl)phenyl)piperazin-1-yl)methyl)-2H-benzo[b][1,4]oxazin-3(4H)-one], the Kd is 1.26 to 10 µM.

Regarding `O=C1COc2ccc(S(=O)(=O)N3CCOCC3)cc2N1` [Compound 116, 6-(Morpholinosulfonyl)-2H-benzo[b][1,4]oxazin-3(4H)-one], the Kd was 12.6 to 79.4 µM.

`CC1Oc2ccc(CN3CCC(N(C4CC4)S(=O)(=O)c4ccccc4)CC3)cc2NC1=O` (stereo not shown) [Compound 42, N-Cyclopropyl-N-(1-((2-methyl-3-oxo-3,4-dihydro-2H-benzo[b][1,4]oxazin-6-yl)methyl)piperidin-4-yl)benzenesulfonamide]: the Kd was 1.26 to 10 µM.

Consider `CCC1Oc2ccc(CN3CCC(c4ccc(Cl)cc4)CC3)cc2NC1=O` (stereo not shown) [Compound 194, 6-((4-(4-Chlorophenyl)piperidin-1-yl)methyl)-2-ethyl-2H-benzo[b][1,4]oxazin-3(4H)-one], for which the Kd is at least 100 µM.

With `CC1Oc2ccc(CN3CCN(c4nc(-c5ccccc5)ns4)CC3)cc2NC1=O` (stereo not shown) [Compound 39, 2-Methyl-6-((4-(3-phenyl-1,2,4-thiadiazol-5-yl)piperazin-1-yl)methyl)-2H-benzo[b][1,4]oxazin-3(4H)-one], the Kd was above 10 µM.
